One test has as its target T1, TRPV3 (Homo sapiens, UniProt Q8NET8).
T1 construct: YFP or GFP; expressed in transfected cells; host or cells: HEK293T
T1 sequence (Q8NET8 1-790): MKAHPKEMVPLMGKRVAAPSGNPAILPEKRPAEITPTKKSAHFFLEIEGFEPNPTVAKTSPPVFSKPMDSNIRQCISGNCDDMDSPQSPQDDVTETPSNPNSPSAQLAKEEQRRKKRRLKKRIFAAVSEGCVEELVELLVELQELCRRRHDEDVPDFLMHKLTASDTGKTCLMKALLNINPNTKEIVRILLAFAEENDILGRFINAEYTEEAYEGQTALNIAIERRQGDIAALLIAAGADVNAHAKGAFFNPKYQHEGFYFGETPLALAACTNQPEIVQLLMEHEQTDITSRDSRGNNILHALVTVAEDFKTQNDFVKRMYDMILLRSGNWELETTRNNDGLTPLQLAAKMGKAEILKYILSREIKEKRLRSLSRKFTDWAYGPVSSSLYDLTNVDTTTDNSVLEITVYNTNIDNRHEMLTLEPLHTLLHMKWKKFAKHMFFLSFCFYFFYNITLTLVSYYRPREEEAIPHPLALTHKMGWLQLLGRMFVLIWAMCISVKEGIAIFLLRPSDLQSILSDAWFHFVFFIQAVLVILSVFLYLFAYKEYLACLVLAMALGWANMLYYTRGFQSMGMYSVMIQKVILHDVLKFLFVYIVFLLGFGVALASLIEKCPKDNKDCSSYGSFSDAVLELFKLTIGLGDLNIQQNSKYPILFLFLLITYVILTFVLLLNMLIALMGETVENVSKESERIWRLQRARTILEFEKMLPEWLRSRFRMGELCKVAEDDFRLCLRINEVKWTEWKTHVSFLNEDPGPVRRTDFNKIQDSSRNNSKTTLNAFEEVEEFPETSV
Briefly: Whole-cell patch-clamp recordings of TRPV3 currents in transfected HEK293T cells. The format is cell-based. Conditions: for IC50: ± 80 mV. The method, then: HEK293T cells are cultured using Dulbecco's modified Eagle's medium containing 10% fetal bovine serum and 1% penicillin-streptomycin in a cell incubator with 5% CO2 at 37 °C. Plasmids of murine TRPV1, TRPV4, TRPM8, and human TRPV3, TRPA1 are labeled with YFP or GFP as indicators for subsequent electrophysiological recordings. Complementary DNA constructs of ion channels were transiently transfected with Lipofectamine 3000 (Invitrogen). And 12 to 18 h after transient transfection, electrophysiological recordings were performed.
Patch-clamp recordings were carried out with a HEKA EPC10 amplifier controlled by PatchMaster software (HEKA; https://www.heka.com/products/products_main.html#soft_pm) ([36]). Patch pipettes were prepared from borosilicate glass and fire-polished to the resistance of 3 to 8 MΩ by P-97 puller for whole-cell recordings. For single-channel recordings, patch pipettes were fire-polished to a higher resistance of 6 to 10 MΩ. Both bath solution and pipette solution contained 130 mM NaCl, 10 mM glucose, 0.2 mM EDTA, and 3 mM Hepes and were adjusted to pH 7.2 to 7.4 with NaOH. Whole-cell recordings and single-channel recordings were performed at ± 80 mV. The current was sampled at 10 kHz and filtered at 2.9 kHz. All recordings were performed at room temperature (25 °C). A gravity-driven system (RSC-200, Bio-Logic) with freely rotated perfusion tubes was used for the perfusion of ligands. Bath and ligand solutions were delivered through separate tubes to minimize the mixing of solutions. Patch pipette holding cells were placed in front of the perfusion tube outlet for perfusion.
All data from whole-cell recordings were analyzed in Igor Pro (WaveMetrics). IC50 values were determined by fitting the Hill equation to concentration-response relationships. Data are shown as mean ± SEM. Statistical significance between two groups was conducted with an unpaired two-tailed t test, and statistical significance among multiple groups was conducted with one-way ANOVA using Dunnett’s multiple comparisons test or Tukey's post hoc test. Differences were regarded as statistically significant with ∗, p < 0.05; ∗∗, p < 0.01; ∗∗∗, p < 0.001; ∗∗∗∗, and p < 0.0001; N.S., no significance.
A general note: The patch-clamp technique gives a direct electrical read-out from membranes.

The next test concerns C57BL/6J male mice. Briefly: Carvacrol-induced AD-like mouse model: skin appearance scores and H&E epidermal thickness. It is filed as in vivo. The method, then:
We therefore generated a carvacrol-induced AD mouse model to test the effect of HCQ.
To investigate the effect of HCQ on carvacrol-induced dermatitis in animals, C57BL/6J male mice (aged 6 weeks) were obtained from the Animal Experimental Center of Hangzhou Medical College (Hangzhou, Zhejiang Province). Mice were housed and maintained in an environment with a 12-h light/dark cycle and a controlled temperature of 22.0 ± 2.0 °C. Food and water were accessible ad libitum. All the animal procedures were approved by the Institutional Animal Care & Use Committee of Zhejiang Center of Laboratory Animals (ZJCLA).
To generate an AD-like mice model, 2% carvacrol (dissolved in 30% ethanol solution) was topically smeared onto the mice dorsum 1 day after hair removal with a depilatory cream (Vetin Depilatory Cream). Mice received a topical administration of an equal volume (200 μl) of 2% carvacrol or in the presence of 2 mg/ml HCQ. […] After the application of carvacrol for 5 days, the external appearance of mice was photographed and then sampled. The external appearance was graded based on three aspects: thickness, erythema/bleeding, and dryness/desquamation, with severity assessed on a score of 0 to 4. The degree of thickness was measured by the thickness of the skin in H&E staining. Skin tissues were either fixed in 4% paraformaldehyde or placed in PBS buffer containing 1% protease inhibitor, facilitating subsequent steps of paraffin embedding or ELISA experiments.
Mice were sacrificed 24 h after the last dose of treatment. Mouse dorsal skin was removed with scissors and forceps before being fixed with 4% paraformaldehyde. Paraffin-embedded tissues were sectioned and stained with H&E. Pictures of stained sections were acquired with a Nikon Eclipse Ti-S microscope with a charge-coupled device camera (DS-Ri2, Nikon).

Where two headings read alike, the source gives them in different places.

By IC50 is commonly meant the midpoint of a concentration-inhibition curve. The term inhibition denotes the change of the read-out against control, counted positive when it falls.

For `CCN(CCO)CCCC(C)Nc1ccnc2cc(Cl)ccc12` (stereo not drawn) [HCQ, hydroxychloroquine], the IC50 on TRPV3 (HEK293T cells expressing TRPV3, whole-cell, 1 mM 2-APB, read-out: IC50, inhibition of TRPV3 currents induced by 1 mM 2-APB) was determined as 51.7 ± 4.78 µM; on TRPV3 (whole-cell, 1 mM carvacrol, read-out: IC50, inhibition of TRPV3 current induced by carvacrol) it was 1.07 ± 0.38 µM. For the same molecule, the inhibition at 100 µM on TRPV3 (HEK-293T, 100 μM HCQ, 1 mM 2-APB, read-out: inhibition of WT TRPV3 channels) was determined as 75.6%. Besides, the dry desquamation score in the test with C57BL/6J male mice (score of 0 to 4, topical, 5 days, 2% carvacrol alone or with HCQ 2 mg/ml) stood at 1.50 ± 0.22. In the test on C57BL/6J male mice (score of 0 to 4, topical, 5 days, 2% carvacrol alone or with HCQ 2 mg/ml or DXM 1 mg/ml), the erythema score is 1.67 ± 0.33. In addition, in the test with C57BL/6J male mice (topical with 2% carvacrol, once a day for 5 days, HCQ 2 mg/ml, DXM 1 mg/ml, 200 μl), the “epidermal thickness (H&E staining)” value came to 51.49 ± 3.01 μm.
